Tests used:
[1] = test system: Sprague-Dawley male rats; test: Formalin induced inflammatory pain model; assay type: in vivo; conditions: single s.c., Serodolin 10 mg/kg, MOA51 1 mg/kg, morphine
Description: FIG. 18: Effect of a single administration of Serodolin (AIC01) or MOA51 in the formalin test in rats. Effect of a single subcutaneous administration of Serodolin (AIC01) or MOA51 in the formalin test in rats. In this test, Sprague-Dawley male rats received unilateral injection of a 2.5% formalin solution (50 μl) into the plantar aspect of the hindpaw on testing day (i.e. D0). Control group received Vehicle (20% DMSO/5% Tween 80/NaCl). Serodolin was subcutaneously (sc) administrated at 10 mg/kg and MOA51 at 1 mg/kg. Positive control animals were treated with morphine (3 mg/kg, sc). Paw licking time was measured. Results are expressed as mean±s.e.m. Percentage are expressed as decreased as compared to the vehicle-treated group and represented as figure (B). ***: p<0.001 as compared to the vehicle-treated group, Bonferroni's test after significant Two-way Repeated Measures ANOVA. NS: Non-significant.
Sprague-Dawley male rats (n=10 rats per group) received unilateral injection of a 2.5% formalin solution (50 μl) into the plantar aspect of the hindpaw on testing day (i.e. D0). Experience was separated into 4 groups of animals. Formalin animals+vehicle-treated group; […]—Formalin animals+Sponsor's Serodolin (10 mg/kg), s.c.—Formalin animals+Sponsor's MOA51 (1 mg/kg), s.c.—Formalin animals+internal validator-treated group (Morphine at 4 mg/Kg, s.c.). Single subcutaneous administration of the Vehicle and Sponsor's Compound 30 min (or other timing depending on Sponsor's design) before formalin injection on testing day (i.e. D0)/Subcutaneous administration of Morphine 30 min before formalin injection on testing day (i.e. D0). Hindpaw licking time recorded in consecutive 5 minutes periods from 0 to 5 minutes (early phase) and 17 to 27 minutes (late phase) after formalin injection.
We evaluated the effect of Serodolin as well as MOA51 in rats in the formalin test, an acute and tonic pain model based on the use of a chemical stimulus. Subcutaneous injection of formalin into the right hindpaw produces a biphasic painful response of increasing and decreasing intensity for about 30 minutes after the injection. […] Although not significant, Serodolin, MOA51 and morphine have an inhibitory effect (−40%, −35% and −57% respectively) during the early phase.

[2] = target: h5-HT7R (Homo sapiens (Human), UniProt P34969); test: ERK1/2 and c-SRC phosphorylation by western blot in HEK-293 cells stably expressing h5-HT7R; assay type: cell-based
Description: (A, B, C, D, E, F) Time course of activation of ERK1/2 after stimulation of HEK-293 cells stably expressing h5-HT7R with various 5-HT7R ligands used at 10 μM. The cells were stimulated for the indicated periods and assayed for detection of phospho ERK1/2 by western blot analysis. […] Representative blots of three independent experiments are illustrated. The histogram on the right of each panel represents the results of densitometric analyses of three independent experiments. Data are means±SEM. * p<0.05; ** p<0.01; *** p<0.001 versus non stimulated cells (NS).
HEK-293 cells stably expressing h5-HT7R were stimulated with increasing concentrations of 5-CT or Serodolin for 7 minutes. Cells were lysed, and western blot analysis was performed. Representative Western blots from three independent experiments were shown in A-C. Quantification was performed by densitometric analyses from three independent experiments. Analyzed data were plotted versus log concentration for each compounds (A; B) or as bar graph (C) on the right panel.
Time course of activation of ERK1/2 after stimulation of HEK-293 cells stably expressing h5-HT7R with JLB060, a 5-HT7R ligand used at 10 μM. The cells were stimulated for the indicated periods and assayed for detection of phospho ERK1/2 by western blot analysis.
(§1) Treated cells were washed twice with cold PBS and lysed on ice for 30 min in lysis buffer containing 50 mM Tris pH 7.5, 150 mM NaCl, 10 mM EDTA, 1% Triton X-100 and the protease inhibitor cocktail. Cell lysates were centrifuged at 10,000×g for 10 min. Supernatant was then solubilized in Laemmli buffer with 0.1% β-mercaptoethanol. Samples were resolved by electrophoresis on 10% SDS-PAGE, and transferred electrophoretically to polyvinylidene fluoride (PVDF) membranes (GE Healthcare Life Sciences). […] membranes were washed in Tris-buffered saline (TBS; pH 7.4) containing 0.1% Tween-20 (TBS-T; 0.1%) and blocked with 5% (w/v) dry milk TBS-T 0.1% for 30 min. […] Blots were probed with anti-arrestin, anti-Phospho-ERK or anti-ERK antibody (1:2000), anti Phospho-SRC, anti SRC antibody, anti-HA or anti-GFP or anti-actin antibodies. Horseradish-peroxidase-conjugated goat anti-rabbit, anti-mouse or anti-rat antibodies (1:33,000) were used as secondary antibodies. Immunoreactive bands were detected using the Dura detection kit. Protein quantification on blots was performed using Quantity One software (Biorad).
as §1, with “12%” for “10%”, “with” for “with anti-arrestin,”, “anti-Phospho-ERK (1:2000)” for “anti-Phospho-ERK”, “anti-GAPDH” for “anti-ERK”, “(1:5000). […]” for “(1:2000), anti Phospho-SRC, anti SRC antibody, anti-HA or anti-GFP or anti-actin antibodies. Horseradish-peroxidase-conjugated goat anti-rabbit, anti-mouse or anti-rat antibodies (1:33,000) were used as secondary antibodies.”
ERK phosphorylation was monitored by western blotting after treatment of cells with 10 μM of ligands at different times ranging from 2 to 60 minutes.

h5-HT7R, sequence (P34969 1-432): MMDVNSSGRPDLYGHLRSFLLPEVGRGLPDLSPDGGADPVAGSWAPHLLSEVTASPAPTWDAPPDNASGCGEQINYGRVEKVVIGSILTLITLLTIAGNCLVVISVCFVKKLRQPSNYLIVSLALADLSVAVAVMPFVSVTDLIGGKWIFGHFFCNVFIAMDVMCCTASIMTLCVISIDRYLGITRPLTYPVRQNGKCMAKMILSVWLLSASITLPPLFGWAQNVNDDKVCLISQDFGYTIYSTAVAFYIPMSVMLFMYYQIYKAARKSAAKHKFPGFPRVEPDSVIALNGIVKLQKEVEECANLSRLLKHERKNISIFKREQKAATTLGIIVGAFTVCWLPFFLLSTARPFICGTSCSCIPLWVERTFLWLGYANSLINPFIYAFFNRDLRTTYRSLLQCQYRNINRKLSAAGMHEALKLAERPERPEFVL

## O=c1[nH]c2ccccc2n1CN1CCN(c2ccc(F)cc2)CC1 [Serodolin]
[1]; 0 to 5 minutes, not significant
  inhibitory effect on paw licking, early phase: −40%
[1]; 17 to 27 minutes
  inhibition of licking, late phase: −80%
[2]; 10 μM of ligand or increasing concentrations, western blot
  induction of ERK phosphorylation: concentration-dependent increase of ERK phosphorylation
[2]; 10 μM of ligand, 2 to 60 minutes
  ERK phosphorylation at the maximal effect: 409±34 % of control
[2]; western blot, 7 minutes
  phosphorylation of c-SRC kinase at Tyr416: induced only after activation of 5-HT7R by Serodolin

From patent US20240199555A1, “APPLICATIONS OF BIASED LIGANDS OF THE SEROTONIN 5-HT7 RECEPTOR FOR THE TREATMENT OF PAIN, MULTIPLE SCLEROSIS AND THE CONTROL OF THERMOREGULATION” (Centre National de la Recherche Scientifique, priority 2021, published 2024)
